According to patent publication US10787442B2, “Modulators of indoleamine 2,3-dioxygenase” (GLAXOSMITHKLINE INTELLECTUAL PROPERTY DEVELOPMENT LIMITED, priority 2016, dated 2020):
Read-outs that look alike come from different tables or passages of the source.

Legend:
[1] = tested on: human epithelial HeLa cells; assay: HeLa cytotoxicity assay (CellTiter-Glo); assay type: cell-based; settings: cytotoxicity in stimulated HeLa cells, recorded as pCC50
Protocol: (§1) Compounds of the present invention were tested via high-throughput cellular assays utilizing detection of kynurenine via mass spectrometry and cytotoxicity as end-points. […] Compounds with IDO1 inhibitory properties decreased the amount of kynurenine produced by the cells via the tryptophan catabolic pathway. Cellular toxicity due to the effect of compound treatment was measured using CellTiter-Glo® reagent (CTG) (Promega Corporation, Madison, Wis.), which is based on luminescent detection of ATP, an indicator of metabolically active cells.
(§2) In preparation for the assays, test compounds were serially diluted 3-fold in DMSO from a typical top concentration of 1 mM or 5 mM and plated at 0.5 μL in 384-well, polystyrene, clear bottom, tissue culture treated plates with lids (Greiner Bio-One, Kremsmünster, Austria) to generate 11-point dose response curves. Low control wells (0% kynurenine or 100% cytotoxicity) contained either 0.5 μL of DMSO in the presence of unstimulated (−IFN-γ) HeLa cells for the mass spectrometry assay or 0.5 μL of DMSO in the absence of cells for the cytotoxicity assay, and high control wells (100% kynurenine or 0% cytotoxicity) contained 0.5 μL of DMSO in the presence of stimulated (+IFN-γ) HeLa cells for both the mass spectrometry and cytotoxicity assays.
(§3) Frozen stocks of HeLa cells were washed and recovered in DMEM high glucose medium with HEPES (Thermo Fisher Scientific, Inc., Waltham, Mass.) supplemented with 10% v/v certified fetal bovine serum (FBS) (Thermo Fisher Scientific, Inc., Waltham, Mass.), and 1× penicillin-streptomycin antibiotic solution (Thermo Fisher Scientific, Inc., Waltham, Mass.). The cells were diluted to 100,000 cells/mL in the supplemented DMEM medium. 50 μL of either the cell suspension, for the mass spectrometry assay, or medium alone, for the cytotoxicity assay, were added to the low control wells, on the previously prepared 384-well compound plates, resulting in 5,000 cells/well or 0 cells/well respectively. IFN-γ was added to the remaining cell suspension at a final concentration of 10 nM, and 50 μL of the stimulated cells were added to all remaining wells on the 384-well compound plates. The plates, with lids, were then placed in a 37° C., 5% CO2 humidified incubator for 2 days.
(§4) Following incubation, the 384-well plates were removed from the incubator and allowed to equilibrate to room temperature for 30 minutes. For the cytotoxicity assay, CellTiter-Glo® was prepared according to the manufacturer's instructions, and 10 μL were added to each plate well. After a twenty minute incubation at room temperature, luminescence was read on an EnVision® Multilabel Reader (PerkinElmer Inc., Waltham, Mass.). For the mass spectrometry assay, 10 μL of supernatant from each well of the compound-treated plates were added to 40 μL of acetonitrile, containing 10 μM of an internal standard for normalization, in 384-well, polypropylene, V-bottom plates (Greiner Bio-One, Kremsmünster, Austria) to extract the organic analytes. Following centrifugation at 2000 rpm for 10 minutes, 10 μL from each well of the acetonitrile extraction plates were added to 90 μL of sterile, distilled H2O in 384-well, polypropylene, V-bottom plates for analysis of kynurenine and the internal standard on the RapidFire 300 (Agilent Technologies, Santa Clara, Calif.) and 4000 QTRAP MS (SCIEX, Framingham, Mass.). MS data were integrated using Agilent Technologies' RapidFire Integrator software, and data were normalized for analysis as a ratio of kynurenine to the internal standard.

[2] = Toxicokinetics in Beagle dogs, 7 day repeat oral administration; assay type: in vivo, Beagle dog; settings: for Tmax / Cmax / AUC(0-t): Beagle, dog, plasma; for Therapeutic Index AUC (0-12 hr): versus predicted human efficacious AUC; for Therapeutic Index Cmax: versus predicted human efficacious Cmax; for Cmax / AUC(0-t): po; for AUC(0-t): read-out: AUC (0-12 hr)
Description: To understand its toxicokinetics and potential effect on hepatic functions, EXAMPLE 6 was orally dosed to Beagle dogs for 7 consecutive days.

ePL tagged IDO1 = biological target: T1, ePL tagged IDO1 (Homo sapiens, UniProt P14902); assay: CETSA (Cellular Thermal Shifting assay); assay type: binding; settings: Hela cells, 3 hours at 37° C., heated at 53° C. for 3 min
T1 construct: expressed in transfected cells; host or cells: HeLa cells transduced with BacMam virus
Protocol: Cellular Thermal Shifting assays were used to directly monitor the ligand binding to target proteins in cells. Hela cells were transduced with BacMam virus expressing ePL tagged IDO1 overnight. The cells were then plated over the compounds for 3 hours at 37° C. in cell culture medium containing 1% FBS. The plates were then sealed and heated at 53° C. for 3 min. InCell Hunter reagents were added and luminescence was read in 90 min.

[3] = biological target: indoleamine 2, 3-dioxygenase (IDO1) (Homo sapiens, UniProt P14902); assay: IDO1 HeLa RapidFire MS Assay (kynurenine by mass spectrometry); assay type: cell-based; settings: HeLa cells stimulated with IFN-γ, 2 days; recorded as pIC50; read-out: IDO1 HeLa PXC50 (converted)
Protocol: IDO1 HeLa RapidFire MS Assay
as §1, §2, §3, §4

[4] = female, 20 mg/kg, Day1, Female, 20 mg/kg PO BID
[5] = female, 20 mg/kg, Day7, Female, 20 mg/kg PO BID
[6] = male, 20 mg/kg, Day1, Male, 20 mg/kg PO BID
[7] = male, 20 mg/kg, Day7, Male, 20 mg/kg PO BID

T1 sequence (P14902 whole entry): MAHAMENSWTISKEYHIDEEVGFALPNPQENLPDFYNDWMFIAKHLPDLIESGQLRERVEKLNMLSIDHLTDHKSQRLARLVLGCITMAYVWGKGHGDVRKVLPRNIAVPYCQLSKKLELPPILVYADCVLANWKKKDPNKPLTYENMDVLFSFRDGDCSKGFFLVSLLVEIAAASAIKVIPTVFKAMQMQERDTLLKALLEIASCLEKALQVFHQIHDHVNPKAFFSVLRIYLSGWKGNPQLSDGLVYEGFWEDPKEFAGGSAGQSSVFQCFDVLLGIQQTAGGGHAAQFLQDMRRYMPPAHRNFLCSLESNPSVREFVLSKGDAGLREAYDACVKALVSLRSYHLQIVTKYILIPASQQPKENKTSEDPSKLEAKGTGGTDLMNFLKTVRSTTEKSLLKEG
indoleamine 2, 3-dioxygenase (IDO1), sequence (P14902 whole entry): as above

SMILES: CC(C)CN(c1ncc([C@H](C)CC(=O)O)cc1Nc1ccc(Cl)cn1)C1CCOCC1 [Example 6, (R)-3-(5-((5-chloropyridin-2-yl)amino)-6-(isobutyl(tetrahydro-2H-pyran-4-yl)amino)pyridin-3-yl)butanoic acid]
- HELA_IDO1_TOX_PXC50 [1]: <5
- Tmax ([2]; oral, 20 mg/kg, post dose on Days 1 and 7): 30 min
- Tmax ([2]; Day1, Female, 20 mg/kg PO BID): 30 min
- Tmax ([2]; Day1, Male, 20 mg/kg PO BID): 30 min
- Therapeutic Index AUC (0-12 hr) ([2]; Day1, Female, 20 mg/kg): 15
- Therapeutic Index Cmax ([2]; Day1, Female, 20 mg/kg): 86
- Therapeutic Index AUC (0-12 hr) ([2]; Day1, Male, 20 mg/kg): 25
- Therapeutic Index Cmax ([2]; Day1, Male, 20 mg/kg): 237
- average therapeutic coverage in AUC for the predicted human efficacious dose ([2]; Day 7): ~34 fold
- average therapeutic coverage in Cmax for the predicted human efficacious dose ([2]; Day 7): ~147 fold
- Therapeutic Index AUC (0-12 hr) ([2]; Day7, Female, 20 mg/kg): 51
- Therapeutic Index Cmax ([2]; Day7, Female, 20 mg/kg): 102
- Therapeutic Index AUC (0-12 hr) ([2]; Day7, Male, 20 mg/kg): 18
- Therapeutic Index Cmax ([2]; Day7, Male, 20 mg/kg): 191
- quantifiable in plasma post the start of the oral dose ([2]; Days 1 and 7): up to 24 hours
- Cmax on Days 1 and 7 ([2]; female dog): comparable
- increase in AUC0-12 following 7 day repeat dosing ([2]; female dog): ~3 fold
- Cmax [2, 4]: 3.7 µg/mL
- AUC(0-t) [2, 4]: 5.2 µg·h/mL
- Cmax [2, 5]: 4.4 µg/mL
- AUC(0-t) [2, 5]: 17.9 µg·h/mL
- systemic exposure (Cmax and AUC0-12 values) on Days 1 and 7 ([2]; male dog): similar
- Cmax [2, 6]: 10.2 µg/mL
- AUC(0-t) [2, 6]: 8.7 µg·h/mL
- Cmax [2, 7]: 8.2 µg/mL
- AUC(0-t) [2, 7]: 6.5 µg·h/mL
- EC50 (ePL tagged IDO1; first value, read-out: pXC50_1 (converted)): 0.575 µM
- EC50 (ePL tagged IDO1; second value, read-out: pXC50_2 (converted)): 0.759 µM
- IC50 [3]: 0.00794 µM
